Source: US9834542B2, “LXR modulators” (BRISTOL-MYERS SQUIBB COMPANY, priority 2013, dated 2017)

Biological target: T1, LXRβ (Homo sapiens, UniProt P55055)
T1 construct: Co-transfection expression plasmids, comprising full-length LXRα (pCMX-h LXRα[…] or LXRβ (pCMX-hLXRβ)); expressed in transfected cells; host or cells: CV-1 African Green Monkey Kidney Cells
T1 sequence (P55055 1-460): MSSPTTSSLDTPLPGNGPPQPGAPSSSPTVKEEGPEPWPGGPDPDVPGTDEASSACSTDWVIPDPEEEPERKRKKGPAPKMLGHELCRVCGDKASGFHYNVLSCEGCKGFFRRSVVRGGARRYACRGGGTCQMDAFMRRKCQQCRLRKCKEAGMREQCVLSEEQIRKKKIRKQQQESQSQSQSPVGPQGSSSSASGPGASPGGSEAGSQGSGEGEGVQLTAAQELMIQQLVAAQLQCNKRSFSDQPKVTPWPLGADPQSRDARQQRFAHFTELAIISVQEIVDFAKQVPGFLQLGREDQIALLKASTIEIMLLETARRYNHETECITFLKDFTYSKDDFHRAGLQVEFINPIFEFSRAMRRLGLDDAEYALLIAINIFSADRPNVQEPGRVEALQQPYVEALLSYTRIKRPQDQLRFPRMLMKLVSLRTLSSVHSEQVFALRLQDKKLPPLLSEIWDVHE
T1 sequence (P19793 1-462 partner): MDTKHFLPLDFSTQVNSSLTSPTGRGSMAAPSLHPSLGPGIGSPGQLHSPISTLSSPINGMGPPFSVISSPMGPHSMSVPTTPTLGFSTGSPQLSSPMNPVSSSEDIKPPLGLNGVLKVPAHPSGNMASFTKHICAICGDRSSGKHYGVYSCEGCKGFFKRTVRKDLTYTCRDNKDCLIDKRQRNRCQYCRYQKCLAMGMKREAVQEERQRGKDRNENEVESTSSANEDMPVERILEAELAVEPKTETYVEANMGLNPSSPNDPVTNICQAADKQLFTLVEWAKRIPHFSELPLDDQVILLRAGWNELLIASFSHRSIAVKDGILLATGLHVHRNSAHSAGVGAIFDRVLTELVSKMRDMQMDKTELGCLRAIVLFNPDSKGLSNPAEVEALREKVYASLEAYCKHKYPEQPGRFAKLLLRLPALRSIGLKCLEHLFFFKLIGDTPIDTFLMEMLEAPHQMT
Experiment: Co-transfection assay (LXRE luciferase reporter), LXRβ
Format: cell-based
Settings: for EC50: CV-1 cells transfected with pCMX-hLXRβ and LXREx1-Tk-Luciferase, 20 hours incubation; for Emax: LXRβ co-transfection, relative to high control 1-(2,4-difluorobenzyl)-2-oxo-6-(4-phenoxyphenyl)-4-(trifluoromethyl)-1,2-dihydropyridine-3-carbonitrile, read-out: % Efficacy
Summary of the method: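 CV-1 cells transiently co-transfected with full-length human LXRβ (or LXRα), LXREx1-Tk-luciferase reporter and β-galactosidase control; compound added (10 μM final in single-point, 11-point ½-log curves, ≤0.5% DMSO) for 20 h at 37 °C. Luciferase read; EC50 from four-parameter fit, efficacy relative to reference agonist high control.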

Structure (SMILES)	EC50 [nM]	Emax [%]
Cc1nc(C(F)(F)F)cn1-c1ccc(-c2cccc(S(C)(=O)=O)c2)cc1-n1nncc1-c1ccc2c(c1)OC(F)(F)O2 [Example 73, 5-(2,2-difluoro-1,3-benzodioxol-5-yl)-1-{3′-(methylsulfonyl)-4-[2-methyl-4-(trifluoromethyl)-1H-imidazol-1-yl]biphenyl-3-yl}-1H-1,2,3-triazole]	476	99
Cc1nc(-c2cc(-c3cc(F)c(CO)c(S(C)(=O)=O)c3)ccc2-n2cc(C(F)(F)F)nc2C)c(-c2ccc(C(F)(F)F)nc2)o1 [Example 568, (3-fluoro-4′-(2-methyl-4-(trifluoromethyl)-1H-imidazol-1-yl)-3′-(2-methyl-5-(6-(trifluoromethyl)pyridin-3-yl)oxazol-4-yl)-5-(methylsulfonyl)-[1,1′-biphenyl]-4-yl)methanol]	552	68
Cc1nc(-c2cc(-c3cccc(S(C)(=O)=O)c3)ccc2-n2cc(C(F)(F)F)nc2C)c(-c2ccc(OC(F)F)c(OC(F)F)c2)o1 [Example 392, 5-(3,4-bis(difluoromethoxy)ohenyl)-2-methyl-4-(4-(2-methyl-4-(trifluoromethyl)-1H-imidazol-1-yl)-3′-(methylsulfonyl)biphenyl-3-yl)oxazole]	187	53
Cc1ccc(-c2cnnn2-c2cc(-c3cccc(S(C)(=O)=O)c3)ccc2-n2cc(C(F)(F)F)nc2C)cc1 [Example 50, 5-(4-methylphenyl)-1-{3′-(methylsulfonyl)-4-[2-methyl-4-(trifluoromethyl)-1H-imidazol-1-yl]biphenyl-3-yl}-1H-1,2,3-triazole]	171	88
Cc1nc(-c2cc(-c3cccc(S(C)(=O)=O)c3)ccc2-n2cc(C(F)(F)F)nc2C)c(-c2cccc(Cl)n2)o1 [Example 441, 5-(6-chloropyridin-2-yl)-2-methyl-4-(4-(2-methyl-4-(trifluoromethyl)-1H-imidazol-1-yl)-3′-(methylsulfonyl)biphenyl-3-yl)oxazole]	1310	38
Cc1cn(-c2ccc(-c3cccc(S(C)(=O)=O)c3)cc2-n2nncc2-c2ccc(OC(F)(F)F)cc2)c(C)n1 [Example 83, 1-[4-(2,4-dimethyl-1H-imidazol-1-yl)-3′-(methylsulfonyl)biphenyl-3-yl]-5-{4-[(trifluoromethyl)oxy]phenyl}-1H-1,2,3-triazole]	1160	69
Cc1nc(C(F)(F)F)cn1-c1ccc(-c2cccc(S(C)(=O)=O)c2)cc1-c1ocnc1Cc1ccc(Cl)cc1 [Example 634, 4-(4-chlorobenzyl)-5-(4-(2-methyl-4-(trifluoromethyl)-1H-imidazol-1-yl)-3′-(methylsulfonyl)-[1,1′-biphenyl]-3-yl)oxazole]	249	68
Cc1nc(C(F)(F)F)cn1-c1ccc(-c2ccc(CO)c(S(C)(=O)=O)c2)cc1-c1nc(CCO)oc1-c1ccc(OC(F)(F)F)cc1 [Example 526]	1770	74
Cc1nc(C(F)(F)F)cn1-c1ccc(-c2cc(F)c(CCO)c(S(C)(=O)=O)c2)cc1-n1nncc1-c1ccc(OC(F)(F)F)cc1 [Example 237, 2-(3-fluoro-4′-(2-methyl-4-(trifluoromethyl)-1H-imidazol-1-yl)-5-(methylsulfonyl)-3′-(5-(4-(trifluoromethoxy)phenyl)-1H-1,2,3-triazol-1-yl)-[1,1′-biphenyl]-4-yl)ethanol]	192	98
Cc1nc(C(F)(F)F)cn1-c1ccc(-c2cc(F)c(CO)c(S(C)(=O)=O)c2)cc1-n1nncc1-c1ccc2c(c1)OC(F)(F)O2 [Example 52, {3′-[5-(2,2-difluoro-1,3-benzodioxol-5-yl)-1H-1,2,3-triazol-1-yl]-3-fluoro-5-(methylsulfonyl)-4′-[2-methyl-4-(trifluoromethyl)-1H-imidazol-1-yl]biphenyl-4-yl}methanol]	172	82
COc1ncc(F)cc1-c1oc(C)nc1-c1cc(-c2cc(F)c(CO)c(S(C)(=O)=O)c2)ccc1-n1cc(C(F)(F)F)nc1C [Example 401, (3-fluoro-3′-(5-(5-fluoro-2-methoxypyridin-3-yl)-2-methyloxazol-4-yl)-4′-(2-methyl-4-(trifluoromethyl)-1H-imidazol-1-yl)-5-(methylsulfonyl)biphenyl-4-yl)methanol]	272	60
Cc1nc(C(F)(F)F)cn1-c1ccc(-c2cccc(S(C)(=O)=O)c2)cc1-n1nncc1-c1ccc(Cl)c(OC(F)(F)F)c1 [Example 35, 5-{4-chloro-3-[(trifluoromethyl)oxy]phenyl}-1-{3′-(methylsulfonyl)-4-[2-methyl-4-(trifluoromethyl)-1H-imidazol-1-yl]biphenyl-3-yl}-1H-1,2,3-triazole]	663	68
Cc1nc(C(F)F)cn1-c1ccc(-c2cccc(S(C)(=O)=O)c2)cc1-n1nncc1C(C)c1ccc(Cl)cc1 (stereo not shown) [Example 133, 5-[1-(4-chlorophenyl)ethyl]-1-{4-[4-(difluoromethyl)-2-methyl-1H-imidazol-1-yl]-3′-(methylsulfonyl)biphenyl-3-yl}-1H-1,2,3-triazole]	256	71

Now those with a lower EC50, led by results:

EC50 [nM]	Emax [%]	Structure (SMILES)
76	77	Cc1nc(-c2cc(-c3cccc(S(C)(=O)=O)c3)ccc2-n2cc(C(F)(F)F)nc2C)c(-c2ccc3ccccc3c2)o1 [Example 436, 2-methyl-4-(4-(2-methyl-4-(trifluoromethyl)-1H-imidazol-1-yl)-3′-(methylsulfonyl)biphenyl-3-yl)-5-(naphthalen-2-yl)oxazole]
35	62	Cc1nc(-c2cc(-c3cc(F)c(CO)c(S(C)(=O)=O)c3)ccc2-n2cc(C(F)(F)F)nc2C)c(-c2ccc(Cl)c(Cl)c2)o1 [Example 507, (3′-(5-(3,4-dichlorophenyl)-2-methyloxazol-4-yl)-3-fluoro-4′-(2-methyl-4-(trifluoromethyl)-1H-imidazol-1-yl)-5-(methylsulfonyl)biphenyl-4-yl)methanol]
87	76	Cc1nc(-c2cc(-c3cccc(S(C)(=O)=O)c3)ccc2-n2cc(C(F)(F)F)nc2C)c(-c2ccc(Cl)c(F)c2)o1 [Example 498, 5-(4-chloro-3-fluorophenyl)-2-methyl-4-(4-(2-methyl-4-(trifluoromethyl)-1H-imidazol-1-yl)-3′-(methylsulfonyl)biphenyl-3-yl)oxazole]
40	91	Cc1nc(-c2ccc(OC(F)(F)F)cc2)c(-c2cc(-c3cc(F)c(CO)c(S(C)(=O)=O)c3)ccc2-n2cc(C(F)(F)F)nc2C)o1 [Example 603, (3-fluoro-3′-(2-methyl-4-(4-(trifluoromethoxy)phenyl)oxazol-5-yl)-4′-(2-methyl-4-(trifluoromethyl)-1H-imidazol-1-yl)-5-(methylsulfonyl)-[1,1′-biphenyl]-4-yl)methanol]
30	43	Cc1cc(-c2cc(-c3cc(F)c(CO)c(S(C)(=O)=O)c3)ccc2-n2cc(C(F)(F)F)nc2C)n(-c2ccc(Cl)cc2)n1 [Example 290, {3′-[1-(4-chlorophenyl)-3-methyl-1H-pyrazol-5-yl]-3-fluoro-5-(methylsulfonyl)-4′-[2-methyl-4-(trifluoromethyl)-1H-imidazol-1-yl]biphenyl-4-yl}methanol]
71	43	Cc1nc(-c2cc(-c3cccc(S(C)(=O)=O)c3)ccc2-n2cc(C(F)(F)F)nc2C)c(-c2ccc(F)cc2F)o1 [Example 453, 5-(2,4-difluorophenyl)-2-methyl-4-(4-(2-methyl-4-(trifluoromethyl)-1H-imidazol-1-yl)-3′-(methylsulfonyl)biphenyl-3-yl)oxazole]
107	54	COCCc1nc(-c2cc(-c3cc(F)c(CO)c(S(C)(=O)=O)c3)ccc2-n2cc(C(F)(F)F)nc2C)c(-c2ccc(OC(F)(F)F)cc2)o1 [Example 527, (3-fluoro-3′-(2-(2-methoxyethyl)-5-(4-(trifluoromethoxy)phenyl)oxazol-4-yl)-4′-(2-methyl-4-(trifluoromethyl)-1H-imidazol-1-yl)-5-(meththsulfonyl)-[1,1′-biphenyl]-4-yl)methanol]
